Data taken from US9642869B2, “Boronic acid derivatives and therapeutic uses thereof” (Rempex Pharmaceuticals, Inc., priority 2013, dated 2017).
Where two headings read alike, the source gives them in different places.

How the values were obtained:
[1] = Serum stability of prodrugs (hydrolysis by human serum); type: in vitro ADME; conditions: 37° C.
Protocol: (§1) Prodrug strategy is one of the ways to achieve or increase oral bioavailability of therapeutic drugs. Compound 13 was used as template a for various ester prodrugs. After a prodrug molecule is absorbed into systemic circulation, the prodrug molecule can be hydrolyzed in the blood to release the active form. The hydrolysis of several prodrugs by rat and human serum were evaluated.
(§2) For all stability experiments the test compounds are treated with rat or human serum in Eppendorf tubes. One example of the testing procedures includes: 992 μl of serum was prewarmed at 37° C. for 2 minutes and then 8 μl of a compound (at 5 mg/ml, 125×) was added to get a final concentration of 40 μg/ml and immediately mixed. Alternatively, serum stability can be tested at 1 mg/ml. […] After vortexing for 30 seconds, the tube was centrifuged in a microcentrifuge for 10 minutes at 15K rpm. Next, 100 μl of the supernatant was combined with 600 μl of water and injected on LC-MS using 0.1% formic acid in water for mobile phase A and 0.1% formic acid in methanol for mobile phase B on an ACE 5 C18 2.1×100 mm column with a 10 μL injection. The flow rate and gradient are adjusted as needed to give the desired resolution and run time. The pH of the mobile phase is adjusted if needed to improve the chromatography.
(§3) The time course of both the disappearance of a prodrug and the appearance of the active form of that prodrug is presented in Table 9a and Table 9b.

[2] = Serum stability of prodrugs (hydrolysis by rat serum); type: in vitro ADME; conditions: 37° C.
Protocol: as §1, §2, §3

ECL1002 [3] = type: cell-based; conditions: minimum BLI concentration inhibiting growth with tigemonam at 4 μg/mL
[4] = Intravenous pharmacokinetics; type: in vivo; conditions: rat, plasma, rats, IV infusion over 0.5 hours, read-out: Free Cl (converted)
Protocol: Rats (n=3 per compound) were administered by a single infusion. IV doses were infused over 0.5 hours via an indwelling femoral vein cannula. Plasma (˜0.3 mL) samples were collected from each rat at designated time points up to 24 hours. Blood samples were centrifuged within 5 min of collection at 12000 g for 5 min to obtain plasma. The plasma samples were stored at −80° C. until analyzed. Data were analyzed using WinNonlin.

CTX-M-15 KP1009 = type: cell-based
SHV-5 ec308 [5] = type: cell-based; conditions: minimum BLI concentration inhibiting growth with tigemonam at 4 μg/mL
ECL1002 [6] = test: Aztreonam potentiation (MPC@4); type: cell-based; conditions: minimum BLI concentration inhibiting growth with 4 μg/mL aztreonam
SHV-5 ec308 [7] = test: Aztreonam potentiation (MPC@4); type: cell-based; conditions: minimum BLI concentration inhibiting growth with 4 μg/mL aztreonam
OXA-48 KP1086 = test: Biapenem potentiation (MPC@1); type: cell-based; conditions: minimum BLI concentration inhibiting growth with 1 μg/mL biapenem
Protocol: (§4) Biapenem was present in the test medium at 1 μg/mL. […] Table 3 summarizes the BLI potency of biapenem potentiation (MPC@1) for two strains overexpressing class A (KPC) and class D (OXA-48) carbapenemases. Biapenem MIC for each strain is also shown.

KP1004 KPC-2 = test: Biapenem potentiation (MPC@1); type: cell-based; conditions: minimum BLI concentration inhibiting growth with 1 μg/mL biapenem
Protocol: as §4

KPC-2 KP1004 = test: Aztreonam potentiation (MPC@4); type: cell-based; conditions: minimum BLI concentration inhibiting growth with 4 μg/mL aztreonam
CTX-M-14 KP1005 = type: cell-based
SHV-12 = SHV-12 (Klebsiella pneumoniae, UniProt P0AD64, E235K/G234S/L31Q); test: Inhibition of nitrocefin cleavage by purified enzyme (Ki); type: biochemical; conditions: nitrocefin reporter substrate, 10 min preincubation; read-out: Ki (SHV-12, NCF)
Chain of SHV-12 (P0AD64 22-286 L31Q/G234S/E235K): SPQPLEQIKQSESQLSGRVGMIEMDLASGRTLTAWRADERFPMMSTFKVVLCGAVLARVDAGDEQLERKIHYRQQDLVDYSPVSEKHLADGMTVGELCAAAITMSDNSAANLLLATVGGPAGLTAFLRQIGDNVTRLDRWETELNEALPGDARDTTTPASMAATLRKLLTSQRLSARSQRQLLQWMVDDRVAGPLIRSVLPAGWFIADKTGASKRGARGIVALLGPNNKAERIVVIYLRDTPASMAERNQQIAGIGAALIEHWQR
Protocol: Purified enzymes were mixed with various concentrations of inhibitors in reaction buffer and incubated for 10 min at room temperature. Nitrocefin was added and substrate cleavage profiles were recorded at 490 nm every 10 sec for 10 min.

Measured Initial Conc. in Serum (prodrug) [1] [µg/mL] | Conc. at t = 2 hr (prodrug) [1] | Conc. at t = 4 hr (prodrug) [1] | Measured Initial Conc. in Serum (prodrug) [2] [µg/mL] | Conc. at t = 2 hr (prodrug) [2] [µg/mL] | Conc. at t = 4 hr (prodrug) [2] | Compound | TIG MPC4 ECL1002 (ECL1002 [3]) | clearance ([4]; dose 20 mg/kg) [mL/min/kg] | TIG MPC4 CTX-M-15 KP1009 (CTX-M-15 KP1009) | TIG MPC4 SHV-5 ec308 (SHV-5 ec308 [5]) | AZT MPC4 ECL1002 (ECL1002 [6]) | AZT MPC4 SHV-5 ec308 (SHV-5 ec308 [7]) | BPM MPC1 OXA-48 KP1086 (OXA-48 KP1086) | BPM MPC1 KP1004 KPC-2 (KP1004 KPC-2) | AZT MPC4 KPC-2 KP1004 (KPC-2 KP1004) | TIG MPC4 CTX-M-14 KP1005 (CTX-M-14 KP1005) | Ki (SHV-12) [nM] | clearance ([4]; dose 10 mg/kg) [mL/min/kg]
27.3 | NDT | NDT | 31.2 | 1.94 | NDT | CCCC(=O)OCOC(=O)c1cccc2c1OB(O)[C@@H](NC(=O)CSC)C2 [Compound 25, (R)-butyryloxymethyl 2-hydroxy-3-(2-(methylthio)acetamido)-3,4-dihydro-2H-benzo[e][1,2]oxaborinine-8-carboxylate] |  |  |  |  |  |  |  |  |  |  |  | 
 |  |  |  |  |  | Nc1nnc(SCC(=O)N[C@H]2Cc3cccc(C(=O)O)c3OB2O)s1 [Compound 5, (R)-3-(2-(5-amino-1,3,4-thiadiazol-2-ylthio)acetamido)-2-hydroxy-3,4-dihydro-2H-benzo[e][1,2]oxaborinine-8-carboxylic acid] | X (MIC of less than 1 μg/mL) | 28.5 | X (key: X: MIC of less than 1 μg/mL; Y: MIC of 1 μg/mL to 10 μg/mL; Z: MIC of greater than 10 μg/mL) | Y (MIC of 1 μg/mL to 10 μg/mL) | Y (MIC of 1 μg/mL to 10 μg/mL) | X (MIC of less than 1 μg/mL) | Y (MIC of 1 μg/mL to 10 μg/mL) | X (MIC of less than 1 μg/mL) | Y (MIC of 1 μg/mL to 10 μg/mL) | X (key: X: MIC of less than 1 μg/mL; Y: MIC of 1 μg/mL to 10 μg/mL; Z: MIC of greater than 10 μg/mL) |  | 
1860 | 1350 µg/mL | 1000 µg/mL | 1780 | 1440 | 1100 µg/mL | CSCC(=O)N[C@H]1Cc2cccc(C(=O)OCOC(=O)C(C)(C)C)c2OB1O [Compound 23, (R)-pivaloyloxymethyl 2-hydroxy-3-(2-(methylthio)acetamido)-3,4-dihydro-2H-benzo[e][1,2]oxaborinine-8-carboxylate] |  |  |  |  |  |  |  |  |  |  |  | 
 |  |  |  |  |  | O=C(CSc1nncs1)N[C@H]1Cc2cccc(C(=O)O)c2OB1O [Compound 7, (R)-3-(2-(1,3,4-thiadiazol-2-ylthio)acetamido)-2-hydroxy-3,4-dihydro-2H-benzo[e][1,2]oxaborinine-8-carboxylic acid] | Y (MIC of 1 μg/mL to 10 μg/mL) | 60.7 | X (key: X: MIC of less than 1 μg/mL; Y: MIC of 1 μg/mL to 10 μg/mL; Z: MIC of greater than 10 μg/mL) | X (MIC of less than 1 μg/mL) | Y (MIC of 1 μg/mL to 10 μg/mL) | X (MIC of less than 1 μg/mL) | Y (MIC of 1 μg/mL to 10 μg/mL) | X (MIC of less than 1 μg/mL) | Y (MIC of 1 μg/mL to 10 μg/mL) | X (key: X: MIC of less than 1 μg/mL; Y: MIC of 1 μg/mL to 10 μg/mL; Z: MIC of greater than 10 μg/mL) | < 1 | 
 |  |  |  |  |  | [N-]=[N+]=NCC(=O)N[C@H]1Cc2cccc(C(=O)O)c2OB1O [Compound 8, (R)-3-(2-azidoacetamido)-2-hydroxy-3,4-dihydro-2H-benzo[e][1,2]oxaborinine-8-carboxylic acid] | X (MIC of less than 1 μg/mL) |  | X (key: X: MIC of less than 1 μg/mL; Y: MIC of 1 μg/mL to 10 μg/mL; Z: MIC of greater than 10 μg/mL) | Y (MIC of 1 μg/mL to 10 μg/mL) | Y (MIC of 1 μg/mL to 10 μg/mL) | X (MIC of less than 1 μg/mL) | Y (MIC of 1 μg/mL to 10 μg/mL) | X (MIC of less than 1 μg/mL) | X (MIC of less than 1 μg/mL) | X (key: X: MIC of less than 1 μg/mL; Y: MIC of 1 μg/mL to 10 μg/mL; Z: MIC of greater than 10 μg/mL) | < 1 | 35
 |  |  |  |  |  | O=C(N[C@H]1Cc2cccc(C(=O)O)c2OB1O)c1cccnc1 [Compound 12, (R)-2-hydroxy-3-(nicotinamido)-3,4-dihydro-2H-benzo[e][1,2]oxaborinine-8-carboxylic acid] | X (MIC of less than 1 μg/mL) |  | Y (key: X: MIC of less than 1 μg/mL; Y: MIC of 1 μg/mL to 10 μg/mL; Z: MIC of greater than 10 μg/mL) | Y (MIC of 1 μg/mL to 10 μg/mL) | X (MIC of less than 1 μg/mL) | Y (MIC of 1 μg/mL to 10 μg/mL) | Y (MIC of 1 μg/mL to 10 μg/mL) | X (MIC of less than 1 μg/mL) | Y (MIC of 1 μg/mL to 10 μg/mL) | Y (key: X: MIC of less than 1 μg/mL; Y: MIC of 1 μg/mL to 10 μg/mL; Z: MIC of greater than 10 μg/mL) | < 1 | 45.7
1520 | 920 µg/mL | 790 µg/mL | 1380 | 1150 | 1080 µg/mL | CCC(CC)C(=O)OCOC(=O)c1cccc2c1OB(O)[C@@H](NC(=O)CSC)C2 [Compound 26, (R)-(2-ethylbutanoyloxy)methyl 2-hydroxy-3-(2-(methylthio)acetamido)-3,4-dihydro-2H-benzo[e][1,2]oxaborinine-8-carboxylate] |  |  |  |  |  |  |  |  |  |  |  | 
 |  |  |  |  |  | NC(=O)N[C@H]1Cc2cccc(C(=O)O)c2OB1O [Compound 6, (R)-2-hydroxy-3-ureido-3,4-dihydro-2H-benzo[e][1,2]oxaborinine-8-carboxylic acid] | Y (MIC of 1 μg/mL to 10 μg/mL) |  | Y (key: X: MIC of less than 1 μg/mL; Y: MIC of 1 μg/mL to 10 μg/mL; Z: MIC of greater than 10 μg/mL) | Z (MIC of greater than 10 μg/mL) | Z (MIC of greater than 10 μg/mL) | Y (MIC of 1 μg/mL to 10 μg/mL) | Y (MIC of 1 μg/mL to 10 μg/mL) | X (MIC of less than 1 μg/mL) | X (MIC of less than 1 μg/mL) | Z (key: X: MIC of less than 1 μg/mL; Y: MIC of 1 μg/mL to 10 μg/mL; Z: MIC of greater than 10 μg/mL) | 1 to 10 | 
1790 | 550 µg/mL | 240 µg/mL | 1660 | 910 | 330 µg/mL | CSCC(=O)N[C@H]1Cc2cccc(C(=O)OCOC(=O)OC(C)C)c2OB1O [Compound 24, (R)-(isopropoxycarbonyloxy)methyl 2-hydroxy-3-(2-(methylthio)acetamido)-3,4-dihydro-2H-benzo[e][1,2]oxaborinine-8-carboxylate] |  |  |  |  |  |  |  |  |  |  |  | 
